Laboratory results taken from US3954733A, “Naphthyridine-3-carboxamido-benzylpenicillins and salts thereof” (Sumitomo Chemical Company, Limited, priority 1973, dated 1976).
Converted amounts (≈) assume the structure as drawn.

Tests used:
Test in all cases: minimal inhibitory concentration, agar dilution method
Assay type in all cases: cell-based
Proteus vulgaris HV19 = tested on: Proteus vulgaris HV19
[1] = tested on: Pseudomonas aeruginosa 104
Source text: (§1) When determined according to the agar dilution method, the penicillins (I) afford the minimal inhibitory concentrations against test microorganisms as shown in Table 2.

Escherichia coli NIHJ = tested on: Escherichia coli NIHJ
Source text: as §1

[2] = tested on: Staphylococcus aureus 209P
Source text: as §1

Proteus miravilis GN2425 = tested on: Proteus miravilis GN2425

Row | Structure (SMILES) | MIC (Proteus vulgaris HV19) | MIC [1] | MIC (Escherichia coli NIHJ) | MIC [2] | MIC (Proteus miravilis GN2425)
1 | CC1(C)S[C@@H]2[C@H](NC(=O)C(NC(=O)c3cnc4cccnc4c3O)c3cccc(O)c3)C(=O)N2[C@H]1C(=O)O (stereo partly drawn) [Example 16] | 0.05 µg/mL (≈ 0.093 µM) | 3.13 µg/mL (≈ 5.82 µM) | 3.13 µg/mL (≈ 5.82 µM) | 1.56 µg/mL (≈ 2.9 µM) | 3.13 µg/mL (≈ 5.82 µM)
2 | CCOC(=O)Oc1ccc([C@@H](NC(=O)c2cnc3ccc(SC)nc3c2O)C(=O)N[C@@H]2C(=O)N3[C@@H]2SC(C)(C)[C@@H]3C(=O)O)cc1 [Example 17] | 0.1 µg/mL (≈ 0.153 µM) | 1.56 µg/mL (≈ 2.38 µM) | 1.56 µg/mL (≈ 2.38 µM) | 0.78 µg/mL (≈ 1.19 µM) | 1.56 µg/mL (≈ 2.38 µM)
3 | Cc1ccc2ncc(C(=O)N[C@@H](C(=O)N[C@@H]3C(=O)N4[C@@H]3SC(C)(C)[C@@H]4C(=O)O)c3ccc(O)cc3)c(O)c2n1 [Example 18] | 0.05 µg/mL (≈ 0.0906 µM) | 1.56 µg/mL (≈ 2.83 µM) | 1.56 µg/mL (≈ 2.83 µM) | 0.78 µg/mL (≈ 1.41 µM) | 1.56 µg/mL (≈ 2.83 µM)
4 | COc1ccc2ncc(C(=O)N[C@@H](C(=O)N[C@@H]3C(=O)N4[C@@H]3SC(C)(C)[C@@H]4C(=O)O)c3ccc(O)cc3)c(O)c2n1 [Example 19] | 0.05 µg/mL (≈ 0.0881 µM) | 3.13 µg/mL (≈ 5.51 µM) | 3.13 µg/mL (≈ 5.51 µM) | 0.78 µg/mL (≈ 1.37 µM) | 3.13 µg/mL (≈ 5.51 µM)
5 | CCOC(=O)Oc1ccc([C@@H](NC(=O)c2cnc3cc([N+](=O)[O-])ccc3c2O)C(=O)N[C@@H]2C(=O)N3[C@@H]2SC(C)(C)[C@@H]3C(=O)O)cc1 [Example 20] |  | 12.5 µg/mL (≈ 19.1 µM) | 12.5 µg/mL (≈ 19.1 µM) | 0.78 µg/mL (≈ 1.19 µM) | 6.5 µg/mL (≈ 9.94 µM)
6 | CC1(C)S[C@@H]2[C@H](NC(=O)[C@H](NC(=O)c3cnc4ccc(O)nc4c3O)c3ccc(O)cc3)C(=O)N2[C@H]1C(=O)O [Example 22] | 0.05 µg/mL (≈ 0.0903 µM) | 3.13 µg/mL (≈ 5.65 µM) | 1.56 µg/mL (≈ 2.82 µM) | 0.78 µg/mL (≈ 1.41 µM) | 1.56 µg/mL (≈ 2.82 µM)
7 | CCOC(=O)Oc1ccc([C@@H](NC(=O)c2cnc3ccc(NC(C)=O)nc3c2O)C(=O)N[C@@H]2C(=O)N3[C@@H]2SC(C)(C)[C@@H]3C(=O)O)cc1 [Example 23] | 0.2 µg/mL (≈ 0.3 µM) | 3.13 µg/mL (≈ 4.69 µM) | 3.13 µg/mL (≈ 4.69 µM) | 1.56 µg/mL (≈ 2.34 µM) | 3.13 µg/mL (≈ 4.69 µM)
8 | CC1(C)S[C@@H]2[C@H](NC(=O)[C@H](NC(=O)c3cnc4ccc(N)nc4c3O)c3ccc(O)cc3)C(=O)N2[C@H]1C(=O)O [Example 24] | 0.05 µg/mL (≈ 0.0905 µM) | 3.13 µg/mL (≈ 5.66 µM) | 1.56 µg/mL (≈ 2.82 µM) | 1.56 µg/mL (≈ 2.82 µM) | 3.13 µg/mL (≈ 5.66 µM)
9 | CCOC(=O)Oc1ccc([C@@H](NC(=O)c2cnc3ccc(N(C)C)nc3c2O)C(=O)N[C@@H]2C(=O)N3[C@@H]2SC(C)(C)[C@@H]3C(=O)O)cc1Cl [Example 25] | 0.05 µg/mL (≈ 0.0728 µM) | 3.13 µg/mL (≈ 4.56 µM) | 3.13 µg/mL (≈ 4.56 µM) | 0.78 µg/mL (≈ 1.14 µM) | 3.13 µg/mL (≈ 4.56 µM)
10 | CC1(C)S[C@@H]2[C@H](NC(=O)[C@H](NC(=O)c3cc4ccccc4nc3O)c3ccc(O)cc3)C(=O)N2[C@H]1C(=O)O [Example 27] | 0.2 µg/mL (≈ 0.373 µM) | 6.25 µg/mL (≈ 11.6 µM) | 6.25 µg/mL (≈ 11.6 µM) | 0.78 µg/mL (≈ 1.45 µM) | 3.13 µg/mL (≈ 5.83 µM)
11 | COc1nc(OC)c2c(O)c(C(=O)N[C@@H](C(=O)N[C@@H]3C(=O)N4[C@@H]3SC(C)(C)[C@@H]4C(=O)O)c3ccc(O)cc3)cnc2n1 [Example 28] | 0.05 µg/mL (≈ 0.0835 µM) | 3.13 µg/mL (≈ 5.23 µM) | 3.13 µg/mL (≈ 5.23 µM) | 0.78 µg/mL (≈ 1.3 µM) | 3.13 µg/mL (≈ 5.23 µM)
12 | CC1(C)S[C@@H]2[C@H](NC(=O)[C@H](NC(=O)c3cnc4ccncc4c3O)c3ccc(O)cc3)C(=O)N2[C@H]1C(=O)O [Example 29] | 0.2 µg/mL (≈ 0.372 µM) | 6.25 µg/mL (≈ 11.6 µM) | 12.5 µg/mL (≈ 23.3 µM) | 0.78 µg/mL (≈ 1.45 µM) | 12.5 µg/mL (≈ 23.3 µM)
13 | CC(C)COC(=O)Oc1ccc([C@@H](NC(=O)c2cnc3nc(N(C)C)ncc3c2O)C(=O)N[C@@H]2C(=O)N3[C@@H]2SC(C)(C)[C@@H]3C(=O)O)cc1 [Example 30] | 0.05 µg/mL (≈ 0.0733 µM) | 6.25 µg/mL (≈ 9.17 µM) | 6.25 µg/mL (≈ 9.17 µM) | 0.78 µg/mL (≈ 1.14 µM) | 3.13 µg/mL (≈ 4.59 µM)
14 | Cc1nc(C)c2c(O)c(C(=O)N[C@@H](C(=O)N[C@@H]3C(=O)N4[C@@H]3SC(C)(C)[C@@H]4C(=O)O)c3ccc(O)cc3)cnc2n1 [Example 31] | 0.1 µg/mL (≈ 0.176 µM) | 3.13 µg/mL (≈ 5.52 µM) | 3.13 µg/mL (≈ 5.52 µM) | 0.78 µg/mL (≈ 1.38 µM) | 3.13 µg/mL (≈ 5.52 µM)
15 | CC1(C)S[C@@H]2[C@H](NC(=O)[C@H](NC(=O)c3cnc4cccnc4c3O)c3ccc(O)c(Cl)c3)C(=O)N2[C@H]1C(=O)O [Example 32] | 0.05 µg/mL (≈ 0.0874 µM) | 3.13 µg/mL (≈ 5.47 µM) | 3.13 µg/mL (≈ 5.47 µM) | 0.78 µg/mL (≈ 1.36 µM) | 6.25 µg/mL (≈ 10.9 µM)
16 | CCOC(=O)Oc1ccc([C@@H](NC(=O)c2cnc3cc4c(cc3c2S)OCO4)C(=O)N[C@@H]2C(=O)N3[C@@H]2SC(C)(C)[C@@H]3C(=O)O)cc1 [Example 38] | 0.2 µg/mL (≈ 0.299 µM) | 3.13 µg/mL (≈ 4.68 µM) |  | 0.39 µg/mL (≈ 0.583 µM) | 3.13 µg/mL (≈ 4.68 µM)
